Measured values taken from patent publication US20100135905A1, “ASSESSMENT OF CANCER SUSCEPTIBILITY TO MOLECULAR TARGETED THERAPY BY USE OF RECOMBINANT PEPTIDES” (priority 2004, published 2010).

What was measured:
tumor endothelial cells = experiment: TUNEL staining of treated tumor sections; format: in vivo
LLC tumors [1] = experiment: Tumor growth delay with SU11248, LLC tumors; format: in vivo, nude mice; conditions: drug alone
Method: (§1) D54 and LLC tumors were implanted into both hind limbs of nude mice as described in Example 2. Tumors were grown over the course of seven to 10 days.
(§2) In comparison, LLC tumors responded to SU11248 alone or in combination with radiation.

tumor vasculature = experiment: Tumor vascular length density, intravital tumor vascular window; format: in vivo, mice
Method: Tumor vascular linear density was measured by use of intravital tumor vascular window. […] Five mice were treated in each of the treatment groups, and the vascular length density after treatment was quantified.

HUVECs [2] = experiment: Apoptotic nuclei in HUVECs, H&E staining; format: cell-based, human; conditions: 24 hours
Method: After a 24-hour incubation period, cells were fixed and stained with Hematoxylin and Eosin (H&E). Five high-powered fields (400×) were observed and counted for each experimental group.

[3] = test system: A431, Colo205, H460, C6 and SF763T tumors; conditions: regression, growth arrest or growth delay of xenografts; cited from earlier work
D54 tumors = experiment: Tumor growth delay with SU11248, D54 tumors; format: in vivo, nude mice; conditions: SU11248 alone
Method: as §1, §2

HUVECs [4] = experiment: Clonogenic survival of HUVECs; format: cell-based, human; conditions: SU11248 prior to irradiation compared to radiation alone (p<0.05)
LLC tumors [5] = experiment: Tumor growth delay, LLC hind limb tumors; format: in vivo, mice
From the text: As disclosed herein, the induction of apoptosis correlated with the biological response in tumor blood vessels and tumor growth delay. […] Both the inhibitor and radiation were discontinued after day 8. […] Time to doubling of LLC tumor size was 5, 6, 8, and 16 days for each group, respectively.

## CCN(CC)CCNC(=O)c1c(C)[nH]c(/C=C2\C(=O)Nc3ccc(F)cc32)c1C [SU11248]
Tumor endothelial cells; SU11248 administered prior to irradiation, tumor endothelium
  Threshold radiation dose for induction of apoptosis: 2 Gy
Tumor endothelial cells; SU11248 alone
  TUNEL staining of tumor sections: no TUNEL staining
Tumor endothelial cells; SU11248 followed by 3 Gy, co-localization with vWF
  TUNEL staining of tumor sections: positive TUNEL staining in endothelial cells
LLC tumors [1]
  Tumor growth delay: showed a tumor growth delay
Tumor vasculature; SU11248 40 mg/kg followed by 3 Gy, within 72 hours
  Vascular length density (VLD) in tumors: 8 % of that at 0 hours
Tumor vasculature; SU11248 alone
  Vascular length density (VLD) in tumors: 84 % that of 0 hour
HUVECs [2]; 100 nM SU11248 alone
  Percentage of endothelial cells with apoptotic nuclei: 7%
HUVECs [2]; 100 nM SU11248 followed by 6 Gy
  Percentage of endothelial cells with apoptotic nuclei: 21%
[3]
  Anti-tumor activity in mice: broad and potent anti-tumor activity
D54 tumors
  Tumor growth delay: did not show tumor growth delay
HUVECs [4]
  Clonogenic survival: significant reduction in clonogenic survival
LLC tumors [5]; SU11248 40 mg/kg i.p. 30 minutes before each 3 Gy dose (21 Gy total)
  Time to doubling of LLC tumor size: 16 days
LLC tumors [5]; SU11248 40 mg/kg i.p. daily, seven administrations, alone
  Time to doubling of LLC tumor size: 6 days
